Values after ≈ are worked out from the molar mass of the structure shown. Where two headings read alike, the source gives them in different places. Where a SMILES comes first, the peptide text is derived from it. [ ]: non-standard residue; d: D form. dDab = NCC[C@@H](N)C(=O)O; Orn = NCCC[C@H](N)C(=O)O; Dab = NCC[C@H](N)C(=O)O
Legend:
PAO mutS [1] = assay: Planktonic susceptibility (MIC), PAO mutS; assay type: cell-based, Pseudomonas aeruginosa
Experimental: (§1) Two CF isolates, PA34 (smooth phenotype) and PA40 (mucoid phenotype), and the 2 reference strains PAO and PAO mutS were tested with the BioFlux device. None of the clinical strains were hypermutators.
(§2) Planktonic and biofilm susceptibility of the strains established in the Calgary device and used in the BioFlux device are described in Table 12.

[2] = system: Pseudomonas aeruginosa isolates from respiratory samples of people with cystic fibrosis; assay: Planktonic susceptibility (MIC) of CF isolates; assay type: cell-based
From the text: (§3) To perform biofilm tests with the Calgary device, fifty-three Pseudomonas aeruginosa isolates from respiratory samples of people with cystic fibrosis were selected among the 414 Pseudomonas aeruginosa of the iABC-collection (Ekkelenkamp M B et al., Antimicrob. Agents Chemother. 2019, 64, 1-7). A representative number of isolates from Northern Ireland, Spain, the Netherlands, and Australia were chosen, including different morphotyes: 18 smooth, 11 mucoid, 11 rough, 10 metallic, and 3 small colony variants. As control strains, the PAO (most commonly used strain for research on this ubiquitous and metabolically versatile opportunistic pathogen, Klockgether J et al., Journal of Bacteriology 2010, 192, 1113-1121) and its hypermutator derivative, PAO mutS strains were used (Oliver A et al., Antimicrob. Agents Chemother. 2004, 48, 4226-33).

[3] = system: PAO, PAO mutS, PA40, PA34; assay: Planktonic susceptibility of all strains used in the BioFlux device; assay type: cell-based, Pseudomonas aeruginosa
Experimental: as §1, §2

PAO [4] = assay: microbe, parasite or virus in culture; assay type: cell-based, Pseudomonas aeruginosa
Experimental: as §1, §2

PA34 (smooth phenotype) [5] = assay: microbe, parasite or virus in culture; assay type: cell-based, Pseudomonas aeruginosa
Experimental: as §1, §2

PA40 (mucoid phenotype) [6] = assay: microbe, parasite or virus in culture; assay type: cell-based, Pseudomonas aeruginosa
Experimental: as §1, §2

PAO [7] = assay type: cell-based, Pseudomonas aeruginosa
Experimental: as §1
(§4) This assay was performed as previously described but with minimal variations (Benoit M R et al., Appl. Environ. Microbiol. 2010, 76, 4136-4142) (FIG. 3). Briefly, a 0.5 McFarland culture was transferred to a flat-bottom 96-well microtiter plate (Nalge Nunc International, Rochester, New York, USA). Bacterial biofilm was formed around the pegs of a modified polystyrene microtiter lid. This lid with pegs was immersed into a growth plate and incubated for 20 h at 37° C. After rinsing the pegs 3 times in saline solution they were placed onto the antimicrobial in BBL™ Mueller-Hinton II cation-adjusted broth (MHB) (Becton, Dickinson and Company, Sparks, MD, USA) and incubated for 20 h at 37° C. […] After this incubation, the biofilm was recovered centrifuging (800 RPM/10 min) the peg lid in an antibiotic-free MHB filled-microtiter plate. The minimal biofilm inhibitory concentration (MBIC) was calculated after measuring the optical density (OD) (450 nm) before and after 6-hour incubation. Biofilm growth was defined as a mean OD difference of ≥0.05. […] The minimal biofilm eradication concentration (MBEC) was defined as the lowest concentration that prevents visible growth in the biofilm recovery medium after 18 h of the microtiter plate incubation (Ceri H et al., J. Clin. Microbiol. 1999, 37, 1771; Macià M D et al., Enferm. Infecc. Microbiol. Clin. 2018, 36, 375-381).
as §2

PA34 (smooth phenotype) [8] = assay type: cell-based, Pseudomonas aeruginosa
Experimental: as §1, §4, §2

PAO mutS [9] = assay type: cell-based, Pseudomonas aeruginosa
Experimental: as §1, §4, §2

PA40 (mucoid phenotype) [10] = assay type: cell-based, Pseudomonas aeruginosa
Experimental: as §1, §4, §2

[11] = system: Pseudomonas aeruginosa isolates from respiratory samples of people with cystic fibrosis growing in biofilms; assay type: cell-based
From the text: (§5) Two types of assays, an open and a closed system, were used to evaluate the in vitro activity on biofilms. The closed or static system based on the Calgary device (Diez-Aguilar M et al., Antimicrob Agents Chemother. 2018, 62, e01650-17, doi: 10.1128/AAC.01650-17, Moskowitz S M et al., J. Clin. Microbiol. 2004, 42, 1915-1922) analyzes biofilm formation in the wells of microtiter plates and is suitable for high-throughput analysis, obtaining pharmacodynamics (PD) parameters, while the open or dynamic system using the BioFlux device (Benoit M R et al., Appl. Environ. Microbiol. 2010, 76, 4136-4142) better resembles the in vivo conditions.
as §3, §4
MBIC and the MBEC are used to determine the anti-biofilm antibiotic in vitro efficacy. MBIC is the lowest concentration at which there is no time-dependent increase in the mean number of biofilm viable cells comparing an early with a later exposure time, while the MBEC indicates the eradication (partly or completely) of biofilm viable cells (Thieme L et al., Biol. Proced. Online 2019, 21, 1-5).

[12] = system: Pseudomonas aeruginosa biofilms (PAO, PAO mutS, PA34, PA40); assay: Biofilm assays performed by the BioFlux microfluidic open system; assay type: cell-based; conditions: both open and closed biofilm-testing systems
From the text: as §5, with “conditions. […]” for “conditions.”
Several biofilms were simultaneously developed in a 48 wells plate in the BioFlux 200 system, following an adapted protocol from Benoit M R et al. (Appl. Environ. Microbiol. 2010, 76, 4136-4142). […] Biofilm images were taken using a Nikon Eclipse Ti microscope (Nikon, Tokyo, Japan) and analyzed with the ImageJ program (Java-based image processing program, National Institute of Health, Bethesda, Maryland, USA and Laboratory for Optical and Computational Instrumentation, University of Wisconsin, Wisconsin, USA). The mean percentage of intensity of red fluorescence corresponding to dead cells within the biofilm is represented in a bar chart as black bar (FIG. 4). […]

[13] = system: clinical Pseudomonas aeruginosa isolates; assay: Mouse lung infection model (PK-PD); assay type: in vivo
[14] = set-up: species or system cynomolgus monkeys; conditions: cynomolgus monkey, in vivo
Experimental: (§6) In the 28-day dose inhalation study in CD-1 mice (20-minute snout only exposure), the mean estimated achieved doses of 0.8, 3.5 and 7.2 mg/kg/day murepavadin free base were administered. […] There were no other findings considered test item related.

[15] = 28-day dose inhalation study in CD-1 mice; assay type: in vivo
Experimental: as §6

[16] = biofilm, Calgary device, CF isolates
[17] = Pseudomonas aeruginosa, read-out: MIC50
[18] = Pseudomonas aeruginosa, read-out: MIC90
[19] = Pseudomonas aeruginosa, PAO, read-out: MIC
[20] = Pseudomonas aeruginosa, PA34, read-out: MIC
[21] = Pseudomonas aeruginosa, PA40, read-out: MIC

Molecule	MIC50 [2] [mg/L]	MIC90 [2] [mg/L]	MIC range [2] [mg/L]	MIC ([3]; all tested strains susceptible) [mg/L]	MBEC (PAO [7]; PAO) [mg/L]	MBIC (PAO [7]; PAO) [mg/L]	MBEC (PA34 (smooth phenotype) [8]; PA34) [mg/L]	MBIC (PA34 (smooth phenotype) [8]; PA34) [mg/L]	MBEC (PAO mutS [9]) [mg/L]	MBIC (PAO mutS [9]) [mg/L]	MBEC (PA40 (mucoid phenotype) [10]; PA40) [mg/L]	MBIC (PA40 (mucoid phenotype) [10]; PA40) [mg/L]	MBEC50 [11, 16]	MBEC90 [11, 16]	MBEC range [11, 16] [mg/L]	MBIC50 [11, 16] [mg/L]	MBIC90 [11, 16] [mg/L]	MBIC range [11, 16] [mg/L]	MIC (PAO mutS [1]; Pseudomonas aeruginosa) [mg/L]	MIC50 [2, 17] [mg/L]	other results
colistin	1	4	≤0.5 to 16	2	128	64	128	32	256	256	32	32	64 mg/L	128 mg/L	≤0.5 to 256	8	64	≤0.5 to 256			MIC (PAO mutS [1]; PAO mutS): 1 mg/L; MIC (PAO [4]; PAO): 1 mg/L; MIC (PA34 (smooth phenotype) [5]; PA34): 2 mg/L; MIC (PA40 (mucoid phenotype) [6]; PA40): 0.5 mg/L
CC[C@H](C)[C@@H]1NC(=O)[C@H](Cc2c[nH]c3ccccc23)NC(=O)[C@H]([C@@H](C)O)NC(=O)[C@@H]2CCCN2C(=O)[C@H]2CCCN2C(=O)[C@H](CO)NC(=O)[C@H](C)NC(=O)[C@H](CCN)NC(=O)[C@H](CCN)NC(=O)[C@H](Cc2c[nH]c3ccccc23)NC(=O)[C@H](CCN)NC(=O)[C@@H](CCN)NC(=O)[C@H](CCCN)NC(=O)[C@H](CCN)NC1=O [murepavadin, cyclo(-Thr-Trp-Ile-Dab-Orn-^DDab-Dab-Trp-Dab-Dab-Ala-Ser-^DPro-Pro-)] (cyclo(TWI[Dab][Orn][dDab][Dab]W[Dab][Dab]AS[dP]P); ring closure inferred)	≤ 0.5	1 (≈ 0.644 µM)	≤0.5 to 32	0.12 (≈ 0.0772 µM)					256	32				64 mg/L		4	32	≤0.5 to 64			activity against biofilms of Pseudomonas aeruginosa [12]: displayed activity; MIC (PAO [4]): 0.06 mg/L (≈ 0.0386 µM); MIC (PA34 (smooth phenotype) [5]): 0.06 mg/L (≈ 0.0386 µM); MIC (PA40 (mucoid phenotype) [6]): 0.06 mg/L (≈ 0.0386 µM); reduction of bacterial burden ([13]; IT doses of 0.075-0.625 mg/kg, three out of four clinical isolates): > 2 log10; achieved dose required to attain the ELF AUC exposure ([13]; inhalation administration): 0.18 mg/kg; achieved dose required to attain the ELF AUC exposure ([13]; intra-tracheal (i.t.) administration): 0.10 mg/kg; mean AUC exposure in ELF sufficient to achieve a 1-login reduction of bacterial burden ([13]; subcutaneous injection, 15 clinical Pseudomonas aeruginosa isolates): 12.23 h·mg/L; MBEC (PAO [7]): 8 mg/L; MBIC (PAO [7]): 4 mg/L; MBEC (PA34 (smooth phenotype) [8]): 4 mg/L; MBIC (PA34 (smooth phenotype) [8]): 2 mg/L; MBEC (PA40 (mucoid phenotype) [10]): 8 mg/L; MBIC (PA40 (mucoid phenotype) [10]): 2 mg/L; microscopic test item related findings at the tracheal bifurcation [14]: not considered adverse; No Observed Adverse Effect Level (NOAEL) ([15]; 28-day inhalation, 0.8, 3.5 and 7.2 mg/kg/day, adverse pathology in the upper respiratory tract): no No Observed Adverse Effect Level (NOAEL) could be established; systemic toxicity ([15]; 28-day inhalation, 20-minute snout only exposure, up to 7.2 mg/kg/day murepavadin free base): no evidence of systemic toxicity; MBEC50 [11]: 16 mg/L
NC[C@H]1O[C@H](O[C@H]2[C@H](O)[C@@H](O[C@H]3O[C@H](CO)[C@@H](O)[C@H](N)[C@H]3O)[C@H](N)C[C@@H]2N)[C@H](N)C[C@@H]1O [tobramycin]			≤0.5 to 256		16	2	2	2	32	16	4	2	8 mg/L	256 mg/L	≤0.5 to 512	2	32	≤0.5 to 512	2 (≈ 4.28 µM)	2 (≈ 4.28 µM)	MIC90 [2, 18]: 16 mg/L (≈ 34.2 µM); MIC ([3]; Pseudomonas aeruginosa): 2 mg/L (≈ 4.28 µM); MIC (PAO [4]; [19]): 0.5 mg/L (≈ 1.07 µM); MIC (PA34 (smooth phenotype) [5]; [20]): 0.25 mg/L (≈ 0.535 µM); MIC (PA40 (mucoid phenotype) [6]; [21]): 0.5 mg/L (≈ 1.07 µM)
C[C@H]1[C@H](NC(=O)/C(=N\OC(C)(C)C(=O)O)c2csc(N)n2)C(=O)N1S(=O)(=O)O [aztreonam]			0.5 to 512		>256	>256	256	8	>256	>256	>256	32	512/>512 mg/L	512/>512 mg/L		32	> 512		64 (≈ 147 µM)	4 (≈ 9.19 µM)	MIC90 [2, 18]: 256 mg/L (≈ 588 µM); MIC (PAO [4]; [19]): 4 mg/L (≈ 9.19 µM); MIC (PA34 (smooth phenotype) [5]; [20]): 0.5 mg/L (≈ 1.15 µM); MIC (PA40 (mucoid phenotype) [6]; [21]): 16 mg/L (≈ 36.7 µM)
